Assays:
[1] = test system: Human immortalized keratinocytes (HaCaT); test: Cytotoxicity assay (LDH activity in supernatant as a measure for cell death); assay type: cell-based; conditions: for cell death (LDH activity): normal culture conditions (without menadione)
Experimental: FIG. 1: HaCat cells were incubated with 10 μM hesperetin (hp, red bars) or low 10 μM hesperetin-7-O-glucuronide (hp-7-O-gluc, yellow bars) or equal amounts of DMSO as a control (blue bars) and treated with or without menadione for additional 5 h. The supernatant was analyzed for lactate dehydrogenase (LDH) activity and results were expressed relative to cells which were lysed with Triton X-100® before analysis (100% death). Human immortalized keratinocytes (HaCaT) were incubated with 10 μM hesperetin, 10 μM hesperetin-7-O-glucuronide or equal amounts of DMSO as a negative control for 16 h and 1 h before challenge. Cells were then treated with 100 μM menadione, a xenobiotic which generates reactive oxygen species intracellularly. Non-menadione treated cells were used as a positive control. After 5 h the supernatant was analysed for lactate dehydrogenase (LDH) activity as a measure for cell death using the CytoTox 96 non-radioactive cytotoxicity assay (Promega, USA).

[2] = test system: CD1d1 antigen; test: Real-time PCR of rat skin total RNA, CD1d1 expression; assay type: in vivo, female wistar rats; conditions: vs control diet
Experimental: (§1) FIG. 4: Real-time PCR analysis of total RNA isolated from rat skin fed either a control diet (ctrl) or a hesperidin-supplemented diet (0.1% Hp, 0.5% Hp) for the expression of CD1d1 and interleukin 6 (IL-6). Samples were analyzed in 3 pools containing 4 rats each and obtained Ct values are shown for CD1d1 in A and IL-6 in B. Dots represent averages of technical triplicates, bars the total average per group. Fold changes in relative expression of the supplementation compared to control diet and relative to a housekeeping gene are shown in C. The control diet was set to 1 fold and is represented by a thick line. Confident intervals were calculated using ANOVA.
(§2) Rat skin biopsies were obtained from the Heperidin growth trial (FIG. 2). Dorsal skin was excised, one part was fixed in 4% PFA and paraffin embedded, one part was cryo-preserved and another part was immediately frozen in liquid nitrogen.
(§3) Skin samples were homogenized with Lysing Matrix D, total RNAs were extracted using the ToTally RNA™ Kit following the manufacturer's instructions. RNA was eluted with 40 μl of nuclease-free water.
(§4) The quantification was performed using the Ribogreen® RNA quantitation Kit on 96-well plates and a fluorescence microplate reader according to the manual. Measurements were done in duplicate. The samples were diluted either 1:680 or 1:3400 in a final volume of 100 μl 1×TE buffer. […]
(§5) Data were analysed by ANOVA. […]

[3] = test system: rat skin; test: Histopathological analysis of rat skin, hesperidin growth trial; assay type: in vivo, female wistar rats; conditions: rats fed hesperidin diet (0.1% and 0.5%) from weaning to 12 weeks of age, vs control diet
Source text: FIG. 3: Histopathological analysis of rat skin supplemented with hesperidin. 6 μm paraffin sections were de-waxed, stained with hematoxylin/eosin and mounted. Representative images in two magnifications are shown for the control group (A and D) and the groups supplemented with hesperidin (0.1%: B and E, 0.5% C and F).
as §2
Rat skin was dissected and fixed for 4 days in 4% paraformaldehyde in PBS (pH 7.4) at 4° C. and embedded in paraffin using a Leica Microsystem embedding apparatus. The tissues were washed in PBS and saline (0.9% NaCl) and dehydrated by passing them through saline solutions with increasing ethanol concentrations: 30 min each in 30%, 50%, 70%, 90%, 99%, 100% and an additional hour in 100%. Tissue samples were incubated twice for 30 min in xylene, followed by 2-3 h and 3 h incubations in paraffin wax at 60° C. 6 μm thick paraffin sections were cut using a Leica Microtome. Sections were de-waxed 5 min in xylene and dehydrated by passing them through a series of solutions with decreasing ethanol concentrations: 1 min each in 100%, 96%, 90%, 80%, 70%, and 50% ethanol. Finally, they were transferred into destilled water and stained. […]

[4] = test system: interleukin 6 (IL-6); test: Real-time PCR of rat skin total RNA, IL-6 expression; assay type: in vivo, female wistar rats; conditions: rats fed 0.5% hesperidin diet, vs control diet
Experimental: as §1, §2, §3, §4, §5

SMILES	potency of protective effect compared to the aglycone ([1]; 10 μM each, FIG. 1)	protective effect against cell death (LDH activity) ([1]; 10 μM, challenged with 100 μM menadione for 5 h, vs DMSO control)	cell death (LDH activity) ([1]; 10 μM, vs DMSO control)	CD1d1 mRNA levels in skin ([2]; rats fed 0.1% hesperidin diet)	CD1d1 mRNA levels in skin ([2]; rats fed 0.5% hesperidin diet)	number of inflammatory cells in skin (histopathology) [3]	IL-6 mRNA levels in skin [4]
COc1ccc([C@@H]2CC(=O)c3c(O)cc(O[C@@H]4O[C@H](C(=O)O)[C@@H](O)[C@H](O)[C@H]4O)cc3O2)cc1O [hesperetin-7-O-glucuronide]	more potent compared to hp	even more pronounced	reducing cell death	–	–	–	–
COc1ccc([C@@H]2CC(=O)c3c(O)cc(O)cc3O2)cc1O [hesperetin]	–	–	reducing cell death	–	–	–	–
COc1ccc([C@@H]2CC(=O)c3c(O)cc(O[C@@H]4O[C@H](CO[C@@H]5O[C@@H](C)[C@H](O)[C@@H](O)[C@H]5O)[C@@H](O)[C@H](O)[C@H]4O)cc3O2)cc1O [hesperidin]	–	–	–	significantly decreased	significantly decreased	reduced number of inflammatory cells	significantly reduced

— patent US9717671B2, “Composition for improving skin, hair and coat health containing flavanones” (Nestec S.A., priority 2003, dated 2017)
